The source of these data is patent US8207229B1, “Preparation of hydroquinone amide compounds with antioxidant properties” (Catalys SAS, priority 2008, dated 2012).

A short description of assay [1]: Inhibiting effect of free radicals: absorbance at 516 nm in the presence of radical diphenyl picryl hydrazide (XI). It is filed as biochemical. The settings on record: ethanolic solution, 200 micromoles per liter compound, 100 micromoles per liter radical (XI), stirred 30 minutes at 20° C., 1-cm vessel. Here is the method: The antioxidant potential in solution of the compounds (I) is evaluated by measuring their reaction with the free radical diphenyl-picryl-hydrazide (XI) per C. T. Ho, S. Agric. Food Chem. 1999, p. 3975, using methyl gallate as a reference (XII).
The inhibiting effect of free radicals claimed for compounds (Ia) and (Ib) obtained in a pure state was evaluated by measuring their absorbance in UV spectrophotometry at 516 nanometers in the presence of radical diphenyl picryl hydrazide (XI).
We prepared ethanolic solutions containing 200 micromoles per liter of the compound to be tested and 100 micromoles per liter of radical (XI), stirred for 30 minutes at 20° C. and placed in a 1-cm long vessel, and we measured the absorbances.

The nature of assay [2]: Assay of the free radical scavenging activity: addition of radical (XI) solution until purple color, absorbance at 516 nm. In kind it is biochemical. The text has this: b) Assay of the free radical scavenging activity of amides (Ia) and (Ib):
Under absorbance measurement conditions of 516 nanometers, we placed 2 micromoles of reference or substrate (Ia) and (Ib) under the UV cell.
We introduced a solution of 200 micromoles of radical (XI) until the purple color characteristic of the radical and measured the absorbance of the medium: […]

Consider `COC(=O)c1cc(O)c(O)c(O)c1` [Methyl gallate, methyl gallate], for which the “Absorbance at 516 nm” value was determined as 0.06 in assay [1] and 0.34 in assay [2] (absorbance of the medium after addition of radical (XI) until purple color, 2 micromoles of substrate). Moreover, the “(XI) consumed” value in assay [2] (2 micromoles of reference or substrate, solution of 200 micromoles of radical (XI) introduced until purple color) turned out to be 27.7 mL.
